From patent publication US12144851B2, “Vaccinal strategy” (INSERM (INSTITUT NATIONAL DE LA SANTÉ ET DE LA RECHERCHE …, priority 2018, dated 2024)
pEC50: −log10 of the molar value. Read-outs that look alike come from different tables or passages of the source. Where a SMILES comes first, the peptide text is derived from it. Where no end group is shown, it is not given here.

Tests used:
[1] = tested on: MELOE-1, HLA A*0201 restricted CD8 T cell clone; settings: for cross-presentation compared with full length MELOE-1 / native antigen (in words): full length MELOE-1 as reference; for Fold change = EC50 (M) of MELOE-111-46/EC50 (M) SLP: SLP MELOE-113-27 xxxx MELOE-136-44, TNF-a response of CD8 T cell clone to SLP-loaded DC, range over independent experiments
[2] = tested on: MELOE-1, HLA DRb1*11 restricted CD4 T cell clone
[3] = tested on: CD8+ splenocytes restimulated with MELOE-136-44; assay: Immunization of transgenic mice with SLP, CD8 ELISpot-IFN-g; assay type: in vivo, HLA-DRB1*0101/HLA-A*0201 transgenic mice; settings: INFg-ELIspot; positive if spots more than twice background and above ten; s.c. 100 μg prime, 50 μg boosts, IFA + polyI:C
Method: CD8+ splenocytes from immunized mice were tested by INFg-ELIspot following restimulation with the short epitope MELOE-136-44. Mice were considered positive if the number of spots after restimulation were more than twice the background level and above ten spots.
HLA-DRB1*0101/HLA-A*0201 transgenic mice (A2/DR1 mice) were used to evaluate immunogenicity of peptides. Group of 5 female A2/DR1 mice (6 to 10 weeks) were immunized subcutaneously with 100 μg of each peptides emulsified in incomplete Freund adjuvant (v/v) plus 50 μg of polyI:C. At day 14 and day 28 boost vaccinations were performed with 50 μg of each peptide along with the same adjuvants. All experiments were carried out according to the good laboratory practices defined by the animal experimentation Rules in France.
Specific immune responses were evaluated 10 days after the last boost by ELISpot-IFN-g (Diaclone, France). Briefly, freshly isolated splenocytes or CD8 positive T cells from spleen (CD8+ T Cell Isolation Kit, Miltenyi Biotec) were incubated (2.105 cells per well) during 15-20 hours in ELISpot plate in the presence of the class I MELOE-1 epitope (5 μg/ml final) or medium (X-vivo, as negative control) or PMA-ionomycin (positive control). Ex vivo CD4 T cell responses were evaluated on the CD8 negative fraction as above with the HLA-DRB1*0101-restricted epitope MELOE-113-27. […] Spot-forming cells were counted using the «C.T.L. Immunospot» system (Cellular Technology Ltd). Results were considered positive when the ELISPOT counts were >10 spots and above 2× the background (medium). (Dosset et al Clin Cancer Res, 2012)
Finally, we explored the immunogenicity of our SLP in vivo in HLA-DRB1*0101/HLA-A*0201 transgenic mice. Mice were immunized subcutaneously with 100 μg of SLP in IFA and poly I:C and boosted at D14 and D28 with 50 μg of SLP with the same adjuvants (see M&M). We focused on cross-presentation and thus assessed CD8 T cell responses by ELISpot-IFN-g after re-stimulation with the short MELOE-1136-44 epitope (SEQ ID NO:31) or with medium alone. A mouse was considered responder when ELIspots were above 10 and at least twice about background. A typical experiment is presented in FIG. 7 comparing immunization with SLP containing MELOE-113-27 (SEQ ID NO:21) and MELOE-136-44 (SEQ ID NO:31) with linker GGGG (SEQ ID NO:160) or LLSVGG (SEQ ID NO:9). Immunization with SLP containing GGGG (SEQ ID NO:160) generated moderate CD8 responses in 3 out of five mice while immunization with SLP with LLSVGG (SEQ ID NO:9) was efficient in all 5 mice with two mice showing robust CD8 responses. Previous experiments performed with the shorter linkers LLSV (SEQ ID NO:4) or LLSVG (SEQ ID NO:8) also supported the hypothesis that our synthetic linkers favored cross-presentation when compared to either the linker GGGG or the native sequence (Table 4). In contrast, CD4 responses evaluated ex vivo towards the HLA-DRB1*0101 epitope were very low (FIG. 7C).

[4] = tested on: CD4 MELOE-113-27-specific T cell clone (HLA DRB1*01 restricted)
Source text: MELOE-111-46 native long peptide and SLP with the linker GGGG (SEQ ID NO:160) were used as controls.

[5] = read-out: EC50, cross-presentation of the HLA-A*0201-restricted MELOE-1 epitope, SLP series MELOE-1 11-23 xxxx MELOE-1 36-44, three independent experiments, FIG. 3

Row | Compound | cross-presentation compared with full length MELOE-1 / native antigen (in words) [1] | pEC50 [1, 5] | Fold change = EC50 (M) of MELOE-111-46/EC50 (M) SLP [1] | other results
1 | GSGS [GSGS (MELOE-111-23 xxxx MELOE-136-44)] | poorer cross-presentation | 6.37 | – | –
2 | TSREQFLPSEGAACPPWGLSVVVTLNDECWPASL (Synthetic SLP) [SEQ ID NO: 85] | – | – | 1 | –
3 | TSREQFLPSEGAACPPWVLSVGTLNDECWPASL (Synthetic SLP) [SEQ ID NO: 71] | ten fold | – | 3-13 | –
4 | TSREQFLPSEGAACPPWVLSVGGTLNDECWPASL (Synthetic SLP) [SEQ ID NO: 69] | – | – | 1.5-2 | –
5 | CC[C@H](C)[C@H](NC(=O)[C@H](CCCNC(=N)N)NC(=O)[C@H](CCC(=O)O)NC(=O)[C@H](CO)NC(=O)[C@@H]1CCCN1C(=O)[C@H](Cc1c[nH]cn1)NC(=O)[C@H](Cc1c[nH]c2ccccc12)NC(=O)[C@@H]1CCCN1C(=O)[C@@H]1CCCN1C(=O)[C@H](CS)NC(=O)[C@H](C)NC(=O)[C@H](C)N)C(=O)N[C@@H](CO)C(=O)N[C@@H](CO)C(=O)N[C@H](C(=O)N[C@@H](CC(C)C)C(=O)N[C@@H](CC(C)C)C(=O)N[C@H](C(=O)NCC(=O)N[C@@H](CO)C(=O)N[C@H](C(=O)N[C@@H](CC(C)C)C(=O)N[C@@H](CC(N)=O)C(=O)N[C@@H](CC(=O)O)C(=O)N[C@@H](CCC(=O)O)C(=O)N[C@@H](CS)C(=O)N[C@@H](Cc1c[nH]c2ccccc12)C(=O)N1CCC[C@H]1C(=O)N[C@@H](C)C(=O)N[C@@H](CO)C(=O)N[C@@H](CC(C)C)C(=O)O)[C@@H](C)O)C(C)C)[C@@H](C)O [LVGS (MELOE-124-37 xxxx MELOE-136-44)] (H-AACPPWHPSERISSTLLVGSTLNDECWPASL-OH) | – | – | – | pEC50 [2]: 7.85; pEC50 [1]: 6.96
6 | ASLG [ASLG (MELOE-111-23 xxxx MELOE-136-44)] | ten fold better presentation | 7.92 | – | –
7 | CC(C)C[C@H](NC(=O)[C@@H](NC(=O)CNC(=O)CNC(=O)CNC(=O)CNC(=O)[C@H](Cc1c[nH]c2ccccc12)NC(=O)[C@@H]1CCCN1C(=O)[C@@H]1CCCN1C(=O)[C@H](CS)NC(=O)[C@H](C)NC(=O)[C@H](C)NC(=O)CNC(=O)[C@H](CCC(=O)O)NC(=O)[C@H](CO)NC(=O)[C@@H]1CCCN1C(=O)[C@H](CC(C)C)NC(=O)[C@H](Cc1ccccc1)NC(=O)[C@H](CCC(N)=O)NC(=O)[C@H](CCC(=O)O)NC(=O)[C@H](CCCNC(=N)N)NC(=O)[C@H](CO)NC(=O)[C@@H](NC(=O)[C@H](C)NC(=O)[C@H](C)N)[C@@H](C)O)[C@@H](C)O)C(=O)N[C@@H](CC(N)=O)C(=O)N[C@@H](CC(=O)O)C(=O)N[C@@H](CCC(=O)O)C(=O)N[C@@H](CS)C(=O)N[C@@H](Cc1c[nH]c2ccccc12)C(=O)N1CCC[C@H]1C(=O)N[C@@H](C)C(=O)O [GGGG (MELOE-111-23 xxxx MELOE-136-44), reference compound] (H-AATSREQFLPSEGAACPPWGGGGTLNDECWPA-OH; N-terminus and C-terminus assumed) | poorer cross-presentation | – | – | pEC50 [1]: 5.92
8 | TSREQFLPSEGAACPPWSLSVGGTLNDECWPASL (Synthetic SLP) [SEQ ID NO: 75] | – | – | 1-8 | –
9 | CC[C@H](C)[C@H](NC(=O)[C@H](CCCNC(=N)N)NC(=O)[C@H](CCC(=O)O)NC(=O)[C@H](CO)NC(=O)[C@@H]1CCCN1C(=O)[C@H](Cc1c[nH]cn1)NC(=O)[C@H](Cc1c[nH]c2ccccc12)NC(=O)[C@@H]1CCCN1C(=O)[C@@H]1CCCN1C(=O)[C@H](CS)NC(=O)[C@H](C)NC(=O)[C@H](C)N)C(=O)N[C@@H](CO)C(=O)N[C@@H](CO)C(=O)N[C@H](C(=O)N[C@@H](CC(C)C)C(=O)NCC(=O)NCC(=O)NCC(=O)NCC(=O)N[C@H](C(=O)N[C@@H](CC(C)C)C(=O)N[C@@H](CC(N)=O)C(=O)N[C@@H](CC(=O)O)C(=O)N[C@@H](CCC(=O)O)C(=O)N[C@@H](CS)C(=O)N[C@@H](Cc1c[nH]c2ccccc12)C(=O)N1CCC[C@H]1C(=O)N[C@@H](C)C(=O)N[C@@H](CO)C(=O)N[C@@H](CC(C)C)C(=O)O)[C@@H](C)O)[C@@H](C)O [GGGG (MELOE-124-37 xxxx MELOE-136-44), reference compound] (H-AACPPWHPSERISSTLGGGGTLNDECWPASL-OH; N-terminus and C-terminus assumed) | – | – | – | pEC50 [2]: 7.59; pEC50 [1]: 5.72
10 | TSREQFLPSEGAACPPWPLSVIITLNDECWPASL (Synthetic SLP) [SEQ ID NO: 79] | – | – | 2.3-10 | –
11 | LLSV [LLSV (MELOE-111-23 xxxx MELOE-136-44)] | hundred fold better | 8.55 | – | –
12 | CC(C)C[C@H](NC(=O)[C@H](CO)NC(=O)[C@H](C)NC(=O)[C@@H]1CCCN1C(=O)[C@H](Cc1c[nH]c2ccccc12)NC(=O)[C@H](CS)NC(=O)[C@H](CCC(=O)O)NC(=O)[C@H](CC(=O)O)NC(=O)[C@H](CC(N)=O)NC(=O)[C@H](CC(C)C)NC(=O)[C@@H](NC(=O)CNC(=O)[C@@H](NC(=O)[C@H](CO)NC(=O)[C@H](CC(C)C)NC(=O)[C@H](CC(C)C)NC(=O)[C@H](Cc1c[nH]c2ccccc12)NC(=O)[C@@H]1CCCN1C(=O)[C@@H]1CCCN1C(=O)[C@H](CS)NC(=O)[C@H](C)NC(=O)[C@H](C)NC(=O)CNC(=O)[C@H](CCC(=O)O)NC(=O)[C@H](CO)NC(=O)[C@@H]1CCCN1C(=O)[C@H](CC(C)C)NC(=O)[C@H](Cc1ccccc1)NC(=O)[C@H](CCC(N)=O)NC(=O)[C@H](CCC(=O)O)NC(=O)[C@H](CCCNC(=N)N)NC(=O)[C@H](CO)NC(=O)[C@@H](N)[C@@H](C)O)C(C)C)[C@@H](C)O)C(=O)O [SEQ ID NO: 89] (H-TSREQFLPSEGAACPPWLLSVGTLNDECWPASL-OH; N-terminus and C-terminus assumed) | – | – | 10-20 | CD8 responses, positive mice, Exp#2 [3]: 2/5; pEC50 [4]: 8.17
13 | VLSVG [VLSVG (MELOE-111-23 xxxx MELOE-136-44)] | hundred fold better | 8.68 | – | –
14 | TSREQFLPSEGAACPPWALSVGGTLNDECWPASL (Synthetic SLP) [SEQ ID NO: 77] | – | – | 1-3 | –
15 | TSREQFLPSEGAACPPWGLSVGGTLNDECWPASL (Synthetic SLP) [SEQ ID NO: 81] | – | – | 1 | –
16 | LVGS [LVGS (MELOE-111-23 xxxx MELOE-136-44)] | ten fold better presentation | 7.47 | – | –
17 | TSREQFLPSEGAACPPWSLSVAATLNDECWPASL (Synthetic SLP) [SEQ ID NO: 73] | – | – | 7-8 | –
18 | PIVLG [PIVLG (MELOE-111-23 xxxx MELOE-136-44)] | hundred fold better | 8.49 | – | –
19 | MSCVGYPDEATSREQFLPSEGAACPPWHPSERISSTLNDECWPASL (cysteines drawn unpaired) [full length MELOE-1, reference compound] | – | – | – | pEC50 [2]: ~7.15
